# Data: publication PMC7140002, “Attenuation of Pseudomonas aeruginosa Quorum Sensing by Natural Products: Virtual Screening, Evaluation and Biomolecular Interactions” (International Journal of Molecular Sciences, 2020)
# What was measured:
# LasR [1] = target: T1, LasR (Pseudomonas aeruginosa, UniProt P25084); assay: microscale thermophoresis; format: binding
# T1 construct: LasR-LBD
# LasR [2] = target: T1, LasR; assay: microscale thermophoresis (no fluorescence signal in thermal shift assay); format: binding
# T1 sequence (P25084 1-173): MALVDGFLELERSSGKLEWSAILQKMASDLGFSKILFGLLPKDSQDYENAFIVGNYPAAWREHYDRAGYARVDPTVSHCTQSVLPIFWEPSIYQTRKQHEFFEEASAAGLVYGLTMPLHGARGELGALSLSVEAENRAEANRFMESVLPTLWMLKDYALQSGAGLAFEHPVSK
Structure (SMILES),Kd (LasR [1]) [µM],Kd (LasR [2]) [µM]
"O=C1C=C(Br)/C(=C/Br)O1 [C30, (Z-)-4-Bromo-5-(bromomethylene)-2(5H)-furanone]",20.4 ± 16,
"O=C(/C=C/c1ccc(O)c(O)c1)c1ccc(O)cc1O [B, Butein]",,3.48 ± 1.63
